According to PubChem BioAssay AID720588 (Broad Institute, 2013):
Active and inactive are the calls of the source.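 How the source made its calls: active means fitted curve falls past a set limit of signal loss at no more than twice the top dose; inconclusive means flat fit between 30 and 70% signal loss, or poor fit; inactive means signal rise, flat within 30%, or crossing too high.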

Test: HEK293T cell cytotoxicity, dose response, cytotoxicity control, CellTiter-Glo luminescence, cherry-pick, set 3 (AID 720588)
Details: HEK293T viability, CellTiter-Glo ATP luminescence, 72 h; at 8 µM (top of the series)

Row | Structure (SMILES) | activity change, negative = cytotoxicity
1 | C[C@H](CO)N1C[C@H](C)[C@H](CN(C)Cc2ccc(C(F)(F)F)cc2)Oc2ccc(NC(=O)CCCCCC(=O)Nc3ccccc3N)cc2CC1=O | 50% (inactive)

Same assay, conditions: HEK293T viability, CellTiter-Glo ATP luminescence, 72 h; at 21 µM (top of the series)

Row | Structure (SMILES) | activity change, negative = cytotoxicity
2 | Cc1ccc(S(=O)(=O)N(C)C[C@@H]2Oc3ccc(NC(=O)CCCCCC(=O)Nc4ccccc4N)cc3CC(=O)N([C@@H](C)CO)C[C@@H]2C)cc1 | 3.82% (inactive)
3 | C[C@H]1CN([C@@H](C)CO)C(=O)Cc2cc(NC(=O)CCC(F)(F)F)ccc2O[C@H]1CN(C)Cc1ccc(C(=O)Nc2ccccc2N)cc1 | -31.3% (inactive)

Same assay, conditions: HEK293T viability, CellTiter-Glo ATP luminescence, 72 h; at 23.5 µM (top of the series)

Row | Structure (SMILES) | activity change, negative = cytotoxicity
4 | C[C@H]1CN([C@@H](C)CO)C(=O)Cc2cc(NC(=O)CCCCCC(=O)Nc3ccccc3N)ccc2O[C@H]1CN(C)Cc1ccc(Cl)c(Cl)c1 | -33.8% (inactive)
5 | O=S(=O)(c1ccc(F)cc1)N1C[C@H]2[C@@H](c3ccccc31)[C@H](CO)N2Cc1ccccc1Cl | -5.62% (inactive)

Same assay, conditions: HEK293T viability, CellTiter-Glo ATP luminescence, 72 h; at 26 µM (top of the series)

Row | Structure (SMILES) | activity change, negative = cytotoxicity
6 | CC(C)CN(C(=O)CN1CCOCC1)c1c(N)n(CC(C)C)c(=O)[nH]c1=O | 6.36% (inactive)
7 | Nc1ccc2c(c1)OC1(CCCC1)O2 | -16.1% (inactive)
8 | O=C(O)c1ccc(N/N=C/c2c(F)cccc2Cl)cc1 | -29.9% (inactive)
9 | COc1ccc(Nc2ncnc3ccc(Br)cc23)c(OC)c1 | -18.8% (inactive)
10 | O=C(CNC(c1ccccc1)c1ccccc1)Nc1ccccc1-c1ccccc1 | -23.7% (inactive)
11 | C[C@@H]1CN([C@@H](C)CO)C(=O)Cc2cc(N(C)C)ccc2O[C@@H]1CN(C)Cc1ccccc1 | -17.5% (inactive)
12 | COc1ccc(/C=C2/SC(=S)N(CCCC(=O)Nc3ccccc3C(=O)O)C2=O)cc1 | -21% (inactive)
13 | Cc1cccc(N2CCN(C3C(=O)Nc4ccccc4-n4nnnc43)CC2)c1C (centres undefined) | -24.4% (inactive)
14 | COC(=O)C[C@H]1CC[C@@H](NC(=O)Nc2ccc(C(F)(F)F)cc2)[C@H](CO)O1 | 9.14% (inactive)
15 | C[C@@H]1CN([C@H](C)CO)C(=O)c2cc(NC(=O)CCCCCC(=O)Nc3ccccc3N)ccc2O[C@@H]1CN(C)Cc1ccc(Cl)c(Cl)c1 | -5.39% (inactive)
16 | COc1cc(-c2coc3c(C(=O)NCc4ccc(C(F)(F)F)cc4)cccc23)ccc1O | -23% (inactive)
17 | CN=c1scc(-c2ccccc2F)n1/N=C/c1ccc(O)c(O)c1O | -25.3% (inactive)
18 | Cc1nn(-c2ccc(F)cc2)c2nc(N)c(C#N)c(-c3ccc(O)c(O)c3)c12 | -12.7% (inactive)
19 | COC(=O)C[C@@H]1CC[C@@H]2[C@@H](COc3ccc(NC(=O)Cc4cccs4)cc3C(=O)N2C)O1 | -8.47% (inactive)
20 | CCCCOc1ccc(NC(=O)C(=O)NCCCn2ccnc2)cc1 | -3.53% (inactive)
21 | Cc1ccsc1C(=O)OCC(=O)c1cc(C)n(C)c1C | -19.5% (inactive)
22 | Nc1ncn([C@@H]2O[C@H](CO)[C@@H](O)[C@H]2O)c(=O)n1 | 4.13% (inactive)
23 | COc1ccccc1-c1cn(CC[C@H]2CC[C@@H](NC(=O)C3CCCC3)[C@@H](CO)O2)nn1 | 0.512% (inactive)
24 | O=C(CCCN1C(=O)S/C(=C\c2ccccc2)C1=O)NNC(=O)c1ccccc1O | -28.3% (inactive)
25 | Cc1c(Cc2ccc3c(c2)OCO3)sc(NC(=O)C(C)(C)C)c1C#N | -13.7% (inactive)
26 | N#CC1=C(N)Oc2cc(N)ccc2C1c1cccc(F)c1 (centres undefined) | -13.6% (inactive)
27 | COc1ccc(/C=C2/NC(=O)N(CC(=O)Nc3cccc(C)c3)C2=O)cc1O | -15.3% (inactive)
28 | Cc1c(CCOC(=O)CC23CC4CC(CC(C)(C4)C2)C3)sc[n+]1CC(=O)c1ccccc1 | 12.1% (inactive)

Row | Structure (SMILES) | activity change, negative = cytotoxicity
29 | O=c1[nH]c(/C=C2\C=Nc3ccccc32)c(O)n1Cc1ccccc1F | -17.6% (inactive)
30 | N#Cc1cccc(-c2ccc(C3[C@@H]4CN(C(=O)Cc5ccncc5)C[C@H]3N4)cc2)c1 (some centres undefined) | 35.3% (inactive)
31 | CCCNC(=O)[C@@H]1[C@@H](CO)[C@@H]2Cn3c(ccc(-c4ccccc4)c3=O)[C@H]1N2C(=O)CC | 22.7% (inactive)
32 | Cc1cc(C)cc(OCC(=O)OCC(=O)Nc2cc(S(=O)(=O)N3CCOCC3)ccc2C)c1 | -14.2% (inactive)
33 | C[C@@H]1CN([C@H](C)CO)S(=O)(=O)c2ccc(C#CC3CC3)cc2O[C@@H]1CN(C)Cc1ccccc1F | -30.1% (inactive)
34 | CCOc1ccc(-c2cc(CCCC(=O)N3CCN(c4ccc(OC)cc4)CC3)no2)cc1 | -8.72% (inactive)
35 | O=C(O)c1cccc(N/N=C/c2cccs2)c1 | -19.1% (inactive)
36 | COc1ccc(N=C2C(=O)Nc3ccc(C)c(Br)c32)cc1 | -21.9% (inactive)
37 | CC(C)(C)c1ccc(Oc2ccc(NC(=O)c3ccccc3C(=O)O)cn2)cc1 | 16.5% (inactive)
38 | COC(=O)C[C@@H]1CC[C@@H]2[C@H](COc3ccc(NC(=O)c4ccc(F)cc4)cc3C(=O)N2C)O1 | 76.4% (inactive)
39 | COc1ccc(C=NNc2nc3ccccc3s2)cc1 | -21.8% (inactive)
40 | O=C(O)c1cccc(N/N=C/c2ccc(OC(F)(F)F)cc2)c1 | 11.3% (inactive)
41 | Cc1ccc(OCCNC(=O)c2cccc(S(=O)(=O)NCc3ccccc3)c2)cc1 | 12.3% (inactive)
42 | C[C@@H]1CN([C@H](C)CO)S(=O)(=O)c2ccc(C#Cc3ccncc3)cc2O[C@@H]1CN(C)C(=O)Nc1ccc2c(c1)OCO2 | -4.95% (inactive)
43 | COC(=O)C(CC#Cc1ccc2c(c1)[C@]1(C(=O)N2)[C@H](c2ccc(OCCO)cc2)N2[C@H](c3ccccc3)[C@H](c3ccccc3)OC(=O)[C@H]2[C@@H]1C(=O)N1CCN(c2ncccn2)CC1)C(=O)OC | 1.09% (inactive)
44 | COc1ccc(/C=C2\SC(=S)N(CCCC(=O)NNC(=O)c3ccccc3O)C2=O)cc1 | 13.3% (inactive)
45 | CCCN(C)C[C@H]1Oc2ncc(-c3ccccc3)cc2C(=O)N([C@@H](C)CO)C[C@H]1C | 2.32% (inactive)
46 | COc1ccc(C2=Nn3c(nnc3-c3ccccc3OC)SC2)cc1OCC1CC1 | -31.8% (inactive)
47 | CCc1ccc(S(=O)(=O)c2ccc(-n3nc(C)cc3N)cc2)cc1 | -6.44% (inactive)
48 | COc1cc(C(c2c(C)[nH][nH]c2=O)c2c(C)[nH][nH]c2=O)ccc1OC(C)C | -1.41% (inactive)
49 | Cc1ccc(/C=C2\SC(=S)N(CCCC(=O)NNC(=O)c3ccccc3O)C2=O)cc1 | -14.6% (inactive)
50 | C[C@@H]1CN([C@H](C)CO)C(=O)Cc2cc(N(C)C)ccc2O[C@H]1CN(C)Cc1ccc(C(=O)Nc2ccccc2N)cc1 | -25.9% (inactive)
51 | CCN(CC)c1ccc(C2NC(=O)c3ccccc3N2)cc1 (centres undefined) | -18.3% (inactive)

Row | Structure (SMILES) | activity change, negative = cytotoxicity
52 | COCc1cc(C)nc2sc(C(=O)NCCO)c(-n3cccc3)c12 | 12.7% (inactive)
53 | C[C@H](CO)N1C[C@H](C)[C@H](CN(C)Cc2ccc(C(=O)Nc3ccccc3N)cc2)Oc2ccc(NS(=O)(=O)c3cccs3)cc2C1=O | -25.3% (inactive)
54 | CC1(C)Oc2cc3oc(-c4cc(O)cc(O)c4)cc3cc2CC1O (centres undefined) | -1.31% (inactive)
55 | O=C1NC2C(=CC(O)C(O)C2O)c2cc3c(cc21)OCO3 (centres undefined) | -41.4% (inactive)
56 | COCC(=O)Nc1ccc2c(c1)[C@@H]1C[C@@H](CC(=O)NCc3ccc(-c4ccccc4)cc3)O[C@@H](CO)[C@@H]1O2 | 13.6% (inactive)
57 | CCn1c(C)cc(C(=O)CN2C(=O)c3ccccc3S2(=O)=O)c1C | -4.24% (inactive)
58 | Brc1ccc(CSc2nnc(-c3ccco3)o2)cc1 | -18% (inactive)
59 | COc1ccc(N=C(NN)c2ccc3ccccc3n2)cc1 | -17.4% (inactive)
60 | COc1ccc(C2c3cc4c(cc3OC(NNC(N)=O)C2C)OCO4)cc1 (centres undefined) | -16.2% (inactive)
61 | Nc1ccc2oc(-c3cc(Br)ccc3Cl)nc2c1 | 19.3% (inactive)
62 | Cc1occc1-c1n[nH]c(=S)n1C | -10.6% (inactive)
63 | C[C@H]1CCCCO[C@H](CN(C)Cc2ccc(C(F)(F)F)cc2)[C@@H](C)CN([C@@H](C)CO)C(=O)c2cc(NC(=O)Nc3ccccc3)ccc2O1 | 0.212% (inactive)
64 | Cc1ccc(/C=C2\SC(=S)N(CCC(=O)NNC(=O)c3ccccc3O)C2=O)cc1 | 24.1% (inactive)
65 | C[C@@H]1CN([C@@H](C)CO)C(=O)c2cc(NS(=O)(=O)c3ccccc3)ccc2O[C@@H]1CN(C)Cc1ccc(C(=O)Nc2ccccc2N)cc1 | -19.2% (inactive)
66 | Cc1ccc(S(=O)(=O)N(C)C[C@H]2Oc3c(cccc3N(C)C)C(=O)N([C@@H](C)CO)C[C@@H]2C)cc1 | -21% (inactive)
67 | O=C1NC(=O)N(CCc2ccc(F)cc2)C(=O)/C1=C/C=C/c1ccccc1 | -10.7% (inactive)
68 | CC(=O)c1ccc(NC(=O)c2noc3c2CCC3)cc1 | -5.3% (inactive)
69 | Cc1noc(C)c1C(=O)Nc1sccc1C(N)=O | 18% (inactive)
70 | CC(=O)c1ccc(N=C2C(=O)Nc3ccccc32)cc1 | -11.5% (inactive)
71 | COc1ccc(C/C(N)=N/OC(C)=O)cc1OC | -1.12% (inactive)
72 | CN(C)C(=S)N=Nc1[nH]c2ccccc2c1O | 7.38% (inactive)
73 | CCOc1ccc2nc(NC3=NC(c4ccc(OC)cc4)CC(=O)N3)nc(C)c2c1 (centres undefined) | -23.2% (inactive)
74 | Cc1ccccc1NC(=O)C(=Cc1ccc(C(=O)O)cc1)C(=O)Nc1ccccc1C | -47.2% (inactive)
